Test results reported in US20220047720A1, “CONJUGATES AND NANOPARTICLES OF HYALURONIC ACID AND EPIGALLOCATECHIN-3-O-GALLATE AND USES THEREOF” (Agency for Science, Technology and Research, priority 2018, published 2022).
Structures can show the parent of a compound that is named as a salt.

Key:
MV-4-11 cells = experiment: In vitro anti-leukemic activity, CellTiter-Glo assay, and median-effect combination index; format: cell-based; settings: 3 days
Description: (§3) MOLM-14 and MV-4-11 cells (ATCC, USA) were maintained in RPMI 1640 media supplemented with 10% (v/v) fetal bovine serum (FBS) and 1% (v/v) penicillin/streptomycin. The cells seeded on white-walled 96-well plates (1×10^4 cells per well) were incubated in 100 μL of 10% FBS-supplemented media containing either sunitinib- or sorafenib-loaded nanoparticles and the respective free drugs at various concentrations. […] After treatment for 3 days, 100 μL of the CellTiter-Glo assay reagent was added to each well of the plates. After incubation for 10 min at 25° C., cellular luminescence was measured using a Tecan Infinite 200 microplate reader (Tecan Group, Switzerland). Results were expressed as percentages of the luminescence signal of analysed cells relative to untreated controls.

MOLM-14 cells = experiment: as above; settings: 3 days
Description: as §3

HEK293 cells = experiment: In vitro cell viability assay (CellTiter-Glo), normal cells; format: cell-based, human; settings: 72 h
Description: (§1) The human AML cell line HL60, human embryonic kidney cell line HEK293 and primary human umbilical vein endothelial (HUVEC) cells were purchased from the American Type Culture Collection (ATCC). The human AML cell lines NB4 was kindly donated by the Cancer Science Institute, Singapore. All the AML cells were cultured in RPMI 1640 medium supplemented with 10% fetal bovine serum (FBS) and maintained in density of 2×10^5 to 1×10^6 cells/mL. HEK293 cells were cultured in DMEM medium supplemented with 10% FBS while HUVEC cells were maintained in EBM™-2 Endothelial Cell Growth Basal Medium supplemented with endothelial cell growth medium SingleQuots™ supplements and growth factors. All the cells were maintained in a humid incubator with 5% CO2 at 37° C.
(§2) All cells (HL60, NB4, HEK293 and HUVEC cells) were seeded at 1×10^4 cells per […] per well in 96-well plates. […] After drug treatment, the cell viability was evaluated using the CellTiter-Glo™ Luminescent Cell Viability Assay Kit (Promega, Madison, Wis.) following the manufacturer's instructions. The luminescence from each well was measured using a Tecan Infinite microplate reader (Tecan Group, Switzerland). The final cell viability values were expressed as percentages derived from the luminescence intensity from the treated cells relative to untreated cells. […]

HUVEC cells = experiment: as above; format: cell-based, human; settings: 72 h
Description: as §1, §2

NB4 cells = experiment: Quantitative evaluation of differentiation in AML cells (CD11b, CD14, CD15 by flow cytometry); format: cell-based, human; settings: three days, ATRA, PMA (100 ng/mL), A3D8 (0.6 μg/mL), EGCG (38 μM), HA equivalent
Description: AML cells were seeded at 1×10^5 cells in 1 mL per well in 24-well plates and were incubated for 2 h with 5% CO2 at 37° C. […] ATRA (1 mM), PMA (100 ng/mL) and A3D8 (0.6 μg/mL) were included as positive controls. After three days of incubation, the cells were harvested and examined for signs of differentiation by assessing cell surface antigen expression. To label the cell surface antigens, the cells were suspended in PBS (pH 7.4) containing 0.2% (v/v) BSA and then incubated at 4° C. for 30 min with mouse anti-human FITC-conjugated CD11b, Cy7-conjugated CD14 and Cy5-conjugated CD15 antibodies (2 μg/mL each). Mouse IgG1 isotype antibody was used as control. After that, the cells were washed three times with PBS containing 0.2% (v/v) BSA and the level of antibody binding was determined by flow cytometry using a fluorescence-activated cell sorter BD LSR II (BD Biosciences, Calif.). Each measurement comprised of acquisition of at least 1×10^4 cells and the analyses were considered as informative when adequate numbers of events (>100) were collected in the enumeration gates. To quantify the percentage of antigen-expressing cells, the cells were defined to be positive for the antigens if they fell within the gating region pre-set to include <2% of untreated control cells.

[1] = Dispersion stability in water (appearance); format: physicochemical; settings: suspended in water at the same sorafenib concentration
Excerpt: Based on the drug loading capacity and particle size, three compositions were selected for in vitro anti-leukemic activity studies (in Example 3) and were named as Sora-NP-1 to Sora-NP-3 (Table 2). Among them, Sora-NP-1 had the smallest particle size with the lowest sorafenib loading capacity. […] This provides indirect evidence that sorafenib molecules were stably encapsulated in the interior of Sora-NP. The excellent dispersion stability of Sora-NP compositions would be beneficial for their clinical applications.

[2] = system: patient-derived AML cells named Leu 14; experiment: Patient-derived AML xenograft mouse model; format: in vivo
Description: All animal experiments were performed according to the protocols approved by IACUC at the Biological Resource Centre, Singapore. A pre-clinical patient-derived liquid xenograft mouse model was established based on a previous report (Z. Her, et al., J. Hematol. Oncol. 2017, 10, 162). Briefly, NOD-scid II2rg^−/− (NSG) newborn pups were sub-lethally irradiated at 1 Gy and engrafted with patient-derived AML cells named Leu 14. When the proportion of human CD45^+ cells in peripheral blood reached around 10-15%, the mice were randomly divided into 3 groups. The first group received intravenous injections of isotonic dextrose solution containing Sora-NP-1 at a sorafenib dose of 0.4 mg kg^−1 twice weekly for 4 weeks. For comparison, another group of mice received intravenous injections of free sorafenib solution prepared in saline-DMSO mixture (95:5, v/v) at an equivalent dose. […] At selected time points, the proportion of human CD45^+ cells in the peripheral blood, spleen and bone marrow was examined by flow cytometry analysis using a LSR II flow cytometer (BD Biosciences).

[3] = equivalent sunitinib concentrations
[4] = equivalent sorafenib concentrations

With `CCN(CC)CCNC(=O)c1c(C)[nH]c(/C=C2\C(=O)Nc3ccc(F)cc32)c1C` [free sunitinib, Sunitinib malate] the “order of effectiveness (anti-leukemic activity)” value (“order of effectiveness” below) (MV-4-11 cells; [3]) was “Suni-NP-1>Suni-NP-2>free sunitinib>Suni-NP-3>Suni-NP-4” and the “order of effectiveness” value (MOLM-14 cells; [3]) was “Suni-NP-1>Suni-NP-2>free sunitinib>Suni-NP-3>Suni-NP-4”.

For Epigallocatechin-3-gallate [EGCG], the “EGCG equivalent concentration with greater toxicity than HA-EGCG (B)” value (HEK293 cells) was 76 µM and the “EGCG equivalent concentration range with greater toxicity than HA-EGCG (B)” value (HUVEC cells) was 15 to 76 µM.

In the case of `CC1=C(/C=C/C(C)=C/C=C/C(C)=C/C(=O)O)C(C)(C)CCC1` [ATRA, all-trans retinoic acid], the “differentiation marker expression” value (NB4 cells) was “greatest increase in the three antigen expression levels and the proportion of antigen-expressing cells”.

In the case of `CNC(=O)c1cc(Oc2ccc(NC(=O)Nc3ccc(Cl)c(C(F)(F)F)c3)cc2)ccn1` [free sorafenib, Sorafenib tosylate], the “Appearance of dispersion in water” value [1] was “heavily flocculated and eventually precipitated”, the “order of effectiveness” value (MV-4-11 cells; [4]) was “Sora-NP-1>Sora-NP-2>Sora-NP-3>free sorafenib” and the “AML cell proliferation in the peripheral blood (human CD45+ cells)” value ([2]; i.v., sorafenib dose 0.4 mg kg^−1 twice weekly for 4 weeks, versus untreated control) was “only a slight delay of AML progression”. For the same compound, the “time at which treated mice started to die” value ([2]; sorafenib dose 0.4 mg kg^−1) was 12 to 14 days, the “cells eradicated / reduction of the cell viability” value (MOLM-14 cells; 200 nM sorafenib) was about 14% and the “order of effectiveness” value (MOLM-14 cells; [4]) was “Sora-NP-1>Sora-NP-2>Sora-NP-3>free sorafenib”.
